Results published in US7534456B2, “Agastache rugosa extract and composition containing tilianin isolated and purified from said extract having anti-inflammatory activity and anti-atherogenic activity” (Korea Research Institute of Bioscience and Biotechnology, priority 2001, dated 2009).
Marks after values point to notes of the source that are not given here.

Assays:
[1] = system: ICAM-1 expression for THP-1 cells; test: Inhibitory activity against TNF-α-induced ICAM-1 expression in THP-1 cells; assay type: cell-based, human; details: 30 μM, TNF-α 10 ng/ml
Method: The following is the process of experiment on inhibitory activity against ICAM-1 expression for THP-1 cells.
THP-1 cells were cultured in CO2 incubator (5% CO2, 95% relative humidity, 37° C.) using RPMI-1640 broth (RPMI-1640, Gibco BRL 23400-021, 1.62%; 0.2% NaHCO3; 1% antimicrobial agents with penicillin and streptomycin mixed) with 10% fetal bovine serum (Gibco BRL 26140-079, FBS) added to the culture media. Samples for test were melted in DMSO, diluted with phosphate buffered saline solution (PBS) to below 5% and added to reactive solution by 5%, so as to set the concentration of DMSO with samples melted therein not to exceed 0.25% in the final solution. 200 μl of THP-1 cells (2.5×10^5 cells/ml) was divided into each well of 96-well with addition of 10 μl of solution prepared at constant concentration. After culturing it in 37° C. CO2 incubator for 1 hour, TNF-α (final concentration: 10 ng/ml) was added to induce ICAM-1 expression and it was cultured in CO2 incubator for 16 more hours. The reactive solution was made to isolate nonspecific bonding part by adding 25 μl of glutaraldehyde buffer solution (glutaraldehyde 2.08% in PBS) to set cells at well, washing it with PBST (0.005% tween-20 in PBS) and adding 3% skim milk. […] Then, the inhibition ratio of the expression by samples was calculated after measuring absorbance at 490 nm and ICAM-1 expression of THP-1 cells by TNF-α.

atherosclerotic lesion = test: Inhibitory activity against atherosclerotic lesion in LDLR−/− mice on high cholesterol diet; assay type: in vivo; details: 1.0% in high cholesterol diet, 8 weeks
Excerpt: The process of experiment on inhibitory activity of atherosclerotic lesion described in detail is as follows. Step I) Mouse Breeding and Experiment on Administration of the Extract of […] rugosa to the Mouse […] During the experiment, the mice had free access to water and food. Step II) Measurement of Atherosclerotic Lesion Models After 8 weeks of experiment, the blood was gathered through the eyes of all mice. Then, PBS ([…]) was flowed through the heart and the artery of mice for 10 minutes and subsequently paraformaldehyde was flowed through for 5 minutes. […] Six frozen sections (9 μm each), prepared beginning from the area of artery using microtome maintaining low temperature (-20° C.), were stained with Oil red O and counter-stained with Harris hematoxylin. These stained sections were then quantified by computer-assisted morphometry and the average lesion size was calculated for each animal group. In this manner, inhibitory activity against sample group's lesion according to outbreak of control group's lesion was calculated.

Structure (SMILES) | Inhibitory activity of ICAM-1 expression (%) [1] [%] | Lesion size (μm^2) (atherosclerotic lesion) | Inhibitory activity (%) against atherosclerotic lesion (atherosclerotic lesion; vs control group)
C[C@@H]1C[C@H]2[C@@H]3CCC4=CC(=O)C=C[C@]4(C)[C@@]3(F)[C@@H](O)C[C@]2(C)[C@@]1(O)C(=O)CO [Dexamethasone, dexamethasone, reference compound] | 40.1 ± 1.7 |  | 
CC[C@H](C)C(=O)O[C@H]1C[C@@H](C)C=C2C=C[C@H](C)[C@H](CC[C@@H]3C[C@@H](O)CC(=O)O3)[C@H]21 [Lovastatin, lovastatin, reference compound] |  | 291442.0 ± 96927.8 | 50.9*** %
